# How the values were obtained:
# cells = conditions: cited from earlier work
# V79 cells [1] = system: V79 cells
# V79 cells [2] = system: V79 cells; remark: listed apart in the source
# rabbit red cells = conditions: in vivo
molecule,measurement,setting,value
"O=S(=O)(O)CC(O)CN(CCO)CCO (stereo not drawn) [DIPSO, 3-[N--N--bis(2-hydroxyethyl)amino]-2-hydroxypropane-sulfonic acid]",effect on cell doubling time compared to phosphate buffered saline,Yac cells,negligable effects on cell doubling time
O=C[C@H](O)[C@@H](O)[C@H](O)[C@H](O)CO [Glucose],effect on cell doubling time compared to phosphate buffered saline,Yac cells,negligable effects on cell doubling time
Phosphate Buffered Saline,Doubling Time,Yac cells,31.0 h
CCCCN1C(=O)C(=CC=CC=C2Oc3ccccc3N2CCCS(=O)(=O)O)C(=O)N(CCCC)C1=S [merocyanine 540],cytotoxicity,cells,cytotoxic when the cell is exposed to light
"O=S(=O)(O)CCCNC(CO)(CO)CO [TAPS, Tris(hydroxymethyl)-methylaminopropane sulfonic acid]",effect on cell doubling time compared to phosphate buffered saline,Yac cells,negligable effects on cell doubling time
"O=S(=O)(O)CCCNC1CCCCC1 [CAPS, 3-(Cyclohexylamino)-1-propanesulfonic acid]",effect on cell doubling time compared to phosphate buffered saline,Yac cells,negligable effects on cell doubling time
OC[C@H]1O[C@@](CO)(O[C@H]2O[C@H](CO)[C@@H](O)[C@H](O)[C@H]2O)[C@@H](O)[C@@H]1O [Sucrose],Doubling Time,Yac cells,41.0 h
same,effect on cell doubling time compared to phosphate buffered saline,Yac cells,negligable effects on cell doubling time
CCCCCCCCCCCCCCN1C(=CC=Cc2oc3ccccc3[n+]2CCCCCCCCCCCCCC)Oc2ccccc21 [DiOC14 (3)],Cell doubling time of stained cells,V79 cells [1],unaffected
same,"Effect on cell viability, Propidium Iodide exclusion",V79 cells [2],absence of effect on cell viability
same,"Effect on cell viability, Trypan Blue Exclusion",V79 cells [2],absence of effect on cell viability
CCCCCCCCCCCCCCN1C(=CC=CC=Cc2sc3ccccc3[n+]2CCCCCCCCCCCCCC)Sc2ccccc21 [DiSC14 (5)],effect on clearance rate of red blood cells,rabbit red cells,did not affect the clearance rate of red blood cells
same,lifetime of labelled red cells in circulation,rabbit red cells,52 days
"O=S(=O)(O)CC(O)CN1CCN(CCO)CC1 (stereo not drawn) [HEPPSO, N--2-hydroxyethylpiperazine-N'--2-hydroxypropane-sulfonic acid]",effect on cell doubling time compared to phosphate buffered saline,Yac cells,negligable effects on cell doubling time
"O=S(=O)(O)CCCN1CCN(CCO)CC1 [EPPS, N--(2-Hydroxyethyl)piperazine-N'--3-propanesulfonic acid]",effect on cell doubling time compared to phosphate buffered saline,Yac cells,negligable effects on cell doubling time

# Reference: US4783401A (priority 1986, dated 1988)
